Patent US8486918B2, “Phenyl oxadiazole derivatives as sphingosine 1-phosphate (S1P) receptor” (Allergan, Inc., priority 2010, dated 2013)

Target: T1, human S1P1 receptor (Homo sapiens, UniProt P21453)
T1 construct: expressed in transfected cells; membranes used
Experiment: GTP γ35S binding assay for S1P1 activity
Format: biochemical
Conditions: membranes of cells stably expressing the S1P1 receptor, test concentrations 0.08 to 5,000 nM
Protocol: Compounds were synthesized and tested for S1P1 activity using the GTP γ^35S binding assay. These compounds may be assessed for their ability to activate or block activation of the human S1P1 receptor in cells stably expressing the S1P1 receptor.
GTP γ^35S binding was measured in the medium containing (mM) HEPES 25, pH 7.4, MgCl2 10, NaCl 100, dithitothreitol 0.5, digitonin 0.003%, 0.2 nM GTP γ^35S, and 5 μg membrane protein in a volume of 150 μl. Test compounds were included in the concentration range from 0.08 to 5,000 nM unless indicated otherwise. Membranes were incubated with 100 μM 5′-adenylylimmidodiphosphate for 30 min, and subsequently with 10 μM GDP for 10 min on ice. Drug solutions and membrane were mixed, and then reactions were initiated by adding GTP γ^35S and continued for 30 min at 25° C. Reaction mixtures were filtered over Whatman GF/B filters under vacuum, and washed three times with 3 mL of ice-cold buffer (HEPES 25, pH7.4, MgCl2 10 and NaCl 100). Filters were dried and mixed with scintillant, and counted for ^35S activity using a β-counter. Agonist-induced GTP γ^35S binding was obtained by subtracting that in the absence of agonist. Binding data were analyzed using a non-linear regression method. In case of antagonist assay, the reaction mixture contained 10 nM S1P in the presence of test antagonist at concentrations ranging from 0.08 to 5000 nM.

T1 sequence (P21453 whole entry): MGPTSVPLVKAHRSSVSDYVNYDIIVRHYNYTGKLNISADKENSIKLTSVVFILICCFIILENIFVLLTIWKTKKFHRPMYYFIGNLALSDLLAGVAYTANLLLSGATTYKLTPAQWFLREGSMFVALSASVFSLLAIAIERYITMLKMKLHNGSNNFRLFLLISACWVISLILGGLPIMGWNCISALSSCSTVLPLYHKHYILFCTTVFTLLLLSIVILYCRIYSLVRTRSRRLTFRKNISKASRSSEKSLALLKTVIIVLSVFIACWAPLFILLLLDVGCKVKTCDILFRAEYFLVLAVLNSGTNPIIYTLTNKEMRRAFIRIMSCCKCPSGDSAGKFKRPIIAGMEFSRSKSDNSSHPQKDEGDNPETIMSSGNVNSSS

EC50 [µM] | Structure (SMILES)
0.0299 | Cc1ccc(SC(c2cccc(Cl)c2)c2nc(-c3cc(C)c(OCC(O)CO)c(C)c3)no2)cc1C (centres unmarked) [Compound 11, 3-[4-(5-{(3-chlorophenyl)[(3,4-dimethylphenyl)thio]methyl}-1,2,4-oxadiazol-3-yl)-2,6-dimethylphenoxy]propane-1,2-diol]
0.42 | Cc1ccc(OC(c2cccc(Cl)c2)c2nc(-c3ccc(CNCCC(=O)O)cc3)no2)cc1 (centres unmarked) [Compound 8, 3-[(4-{5-[(3-chlorophenyl)(4-methylphenoxy)methyl]-1,2,4-oxadiazol-3-yl}benzyl)amino]propanoic acid]
2.1 | CCCc1cccc(OC(c2cccc(Cl)c2)c2nc(-c3ccc(CNCCC(=O)O)cc3)no2)c1 (centres unmarked) [3-[(4-{5-[(3-chlorophenyl)(3-propylphenoxy)methyl]-1,2,4-oxadiazol-3-yl}benzyl)amino]propanoic acid]
1.6 | CCCc1ccc(OC(c2cccc(Cl)c2)c2nc(-c3ccc(CNCCC(=O)O)cc3)no2)cc1 (centres unmarked) [Compound 6, 3-[(4-{5-[(3-chlorophenyl)(4-propylphenoxy)methyl]-1,2,4-oxadiazol-3-yI}benzyl)amino]propanoic acid]
0.209 | COc1ccc(OC(c2nc(-c3ccc(CNCCC(=O)O)cc3)no2)c2ccccc2Cl)cc1C (centres unmarked) [Compound 10, 3-[(4-{5-[(2-chlorophenyl)(4-methoxy-3-methylphenoxy)methyl]-1,2,4-oxadiazol-3-yl}benzyl)amino]propanoic acid]
1.08 | CCc1ccc(OC(c2cccc(Cl)c2)c2nc(-c3ccc(CNCCC(=O)O)cc3)no2)cc1 (centres unmarked) [Compound 7, 3-[(4-{5-[(3-chlorophenyl)(4-ethylphenoxy)methyl]-1,2,4-oxadiazol-3-yI}benzyl)amino]propanoic acid]
0.146 | Cc1ccc(SC(c2nc(-c3ccc(CNCCC(=O)O)cc3)no2)c2ccccc2Cl)cc1C (centres unmarked) [Compound 5, 3-{[4-(5-{(2-chlorophenyl)[(3,4-dimethylphenyl)thio]methyl}-1,2,4-oxadiazol-3-yI)benzyl]amino}propanoic acid]
2.12 | O=C(O)CCNCc1ccc(-c2noc(C(Oc3cccc(Cl)c3)c3ccccc3Cl)n2)cc1 (centres unmarked) [Compound 2, 3-[(4-{5-[(3-chlorophenoxy)(2-chlorophenyl)methyl]-1,2,4-oxadiazol-3-yl}benzyl)amino]propanoic acid]
